Assay results taken from the supplement of paper PMC11061612.

How the values were obtained:
Test in all cases: combination Emax (second highest fraction inhibited in the dose matrix, 72 h); higher = more inhibition; extreme values may be limits of the assay
[1] = system: MFM-223 (Breast Carcinoma)
Summary of the method: (§1)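 Bliss excess equals the observed combination effect minus the expected value EA + EB − EA·EB, where EA and EB are the effects of each agent alone. Combination Emax is the second-highest inhibition within the matrix. Inhibition was scaled from CellTiter-Glo 2.0 luminescence, with 0 set by vehicle wells and 1 by blank wells, after 72 hours of two-drug dosing of cells plated in 1536-well plates.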

[2] = system: KYSE-180 (Esophageal Squamous Cell Carcinoma)
Summary of the method: as §1

[3] = system: TC-71 (Ewing's Sarcoma)
Summary of the method: as §1

[4] = system: L-540 (Hodgkin's Lymphoma)
Summary of the method: as §1

[5] = system: SU-DHL-8 (B-Cell Non-Hodgkin's Lymphoma)
Summary of the method: as §1

[6] = system: MS751 (Cervical Carcinoma)
Summary of the method: as §1

[7] = system: TOV-112D (Ovarian Carcinoma)
Summary of the method: as §1

[8] = system: DND-41 (T-Lymphoblastic Leukemia)
Summary of the method: as §1

[9] = system: BFTC-905 (Bladder Carcinoma)
Summary of the method: as §1

[10] = system: WIL2-NS (Non-Cancerous)
Summary of the method: as §1

[11] = system: MKN28 (Gastric Carcinoma)
Summary of the method: as §1

[12] = system: WM-115 (Melanoma)
Summary of the method: as §1

[13] = system: TE-6 (Esophageal Squamous Cell Carcinoma)
Summary of the method: as §1

[14] = system: CAMA-1 (Breast Carcinoma)
Summary of the method: as §1

[15] = system: NCI-H2818 (Mesothelioma)
Summary of the method: as §1

[16] = system: SW837 (Colorectal Carcinoma)
Summary of the method: as §1

[17] = system: EVSA-T (Breast Carcinoma)
Summary of the method: as §1

[18] = system: MOLT-16 (T-Lymphoblastic Leukemia)
Summary of the method: as §1

[19] = system: HL-60 (Acute Myeloid Leukemia)
Summary of the method: as §1

[20] = system: DiFi (Colorectal Carcinoma)
Summary of the method: as §1

| Compound | combination Emax [1] | combination Emax [2] | combination Emax [3] | combination Emax [4] | combination Emax [5] | combination Emax [6] | combination Emax [7] | combination Emax [8] | combination Emax [9] | combination Emax [10] | combination Emax [11] | combination Emax [12] | combination Emax [13] | combination Emax [14] | combination Emax [15] | combination Emax [16] | combination Emax [17] | combination Emax [18] | combination Emax [19] | combination Emax [20] |
| --- | --- | --- | --- | --- | --- | --- | --- | --- | --- | --- | --- | --- | --- | --- | --- | --- | --- | --- | --- | --- |
| CCc1c2c(nc3ccc(O)cc13)-c1cc3c(c(=O)n1C2)COC(=O)[C@]3(O)CC [SN-38] + CN(C)CCCOc1ccc(-c2ccc3ncc4c(c3c2)n(C2CCOCC2)c(=O)n4C)cn1 [AZD0156] (first compound max 0.3 µM, 7x7, partner max 1 µM) | 0.243 | 0.411 | 1 | 0.951 | 0.992 | 0.883 | 0.965 | 0.934 | 0.957 | 1 | 0.451 | 0.43 | 0.313 | 0.208 | 0.499 | 0.343 | 0.421 | 1 | 0.968 | 0.669 |
| C[C@@H](c1ccc2nccn2c1)n1nnc2ncc(-c3cnn(C)c3)nc21 [Savolitinib] + CC1(C)CCC(CN2CCN(c3ccc(C(=O)NS(=O)(=O)c4ccc(NCC5CCOCC5)c([N+](=O)[O-])c4)c(Oc4cnc5[nH]ccc5c4)c3)CC2)=C(c2ccc(Cl)cc2)C1 [Venetoclax] (first compound max 1 µM, 7x7, partner max 1 µM) | 0.0596 | 0.134 | 0.119 | 0.246 | 0.288 | 0.176 | 0.0298 | 0.233 | 0.164 | 0.163 | 0.0564 | 0.199 | 0.124 | 0.17 | 0.127 | 0.14 | 0.201 | 0.58 | 0.658 | 0.11 |
| C[C@@H](c1ccc2nccn2c1)n1nnc2ncc(-c3cnn(C)c3)nc21 [Savolitinib] + Cc1c2c(nn1C)CSCc1cc(n(C)n1)CSc1cc(c3ccccc3c1)OCCCc1c(C(=O)O)n(C)c3c-2c(Cl)ccc13 [AZD5991] (first compound max 1 µM, 7x7, partner max 1 µM) | 0.244 | 0.278 | 0.412 | 0.975 | 0.697 | 0.773 | 0.395 | 0.172 | 0.191 | 0.0914 | 0.0861 | 0.185 | 0.308 | 0.494 | 0.16 | 0.124 | 1 | 1 | 1 | 0.257 |
| Cn1cnc2c(F)c(Nc3ccc(Br)cc3Cl)c(C(=O)NOCCO)cc21 [Selumetinib] + C=CCn1c(=O)c2cnc(Nc3ccc(N4CCN(C)CC4)cc3)nc2n1-c1cccc(C(C)(C)O)n1 [AZD1775] (first compound max 10 µM, partner max 1 µM) | 0.446 | 0.544 | 0.355 | 0.905 | 1 | 0.575 | 0.48 | 0.898 | 0.665 | 0.937 | 0.276 | 0.402 | 0.506 | 0.148 | 0.303 | 0.549 | 0.156 | 1 | 0.712 | 0.849 |
| Cn1cnc2c(F)c(Nc3ccc(Br)cc3Cl)c(C(=O)NOCCO)cc21 [Selumetinib] + CC(C)n1c(=O)n(C)c2cnc3cc(F)c(-c4ccc(OCCCN5CCCCC5)nc4)cc3c21 [AZD1390] (first compound max 10 µM, 7x7, partner max 0.3 µM) | 0.0965 | 0.0295 | 0.237 | 0.0301 | 0.0761 | 0.144 | 0.138 | 0.157 | 0.606 | 0.252 | 0.137 | 0.411 | 0.388 | 0.0892 | 0.138 | 0.567 | 0.174 | 0.277 | 0.743 | 0.641 |
| Cn1cnc2c(F)c(Nc3ccc(Br)cc3Cl)c(C(=O)NOCCO)cc21 [Selumetinib] + CCN(CCO)CCCOc1ccc2c(Nc3cc(CC(=O)Nc4cccc(F)c4)[nH]n3)ncnc2c1 [AZD2811] (first compound max 10 µM, 7x7, partner max 1 µM) | 0.17 | 0.103 | 0.838 | 0.194 | 0.354 | 0.639 | 0.349 | 0.199 | 0.781 | 0.259 | 0.191 | 0.434 | 0.353 | 0.22 | 0.168 | 0.554 | 0.283 | 1 | 0.918 | 0.813 |
| Cn1cnc2c(F)c(Nc3ccc(Br)cc3Cl)c(C(=O)NOCCO)cc21 [Selumetinib] + C[C@@H]1COCCN1C2=NC(=NC(=C2)C3(CC3)[S@](=N)(=O)C)C4=C5C=CNC5=NC=C4 [AZD6738] (first compound max 10 µM, 7x7, partner max 10 µM) | 0.673 | 0.393 | 0.945 | 0.889 | 0.936 | 0.476 | 0.657 | 0.897 | 0.784 | 0.922 | 0.202 | 0.617 | 0.671 | 0.319 | 0.252 | 0.544 | 0.222 | 1 | 0.819 | 0.844 |
| CC(=O)Nc1cccc(-n2c(=O)n(C3CC3)c(=O)c3c(Nc4ccc(I)cc4F)n(C)c(=O)c(C)c32)c1 [Trametinib] + Cc1nc(-c2cn3c(n2)-c2ccc(-c4cnn(C(C)(C)C(N)=O)c4)cc2OCC3)n(C(C)C)n1 [Taselisib] (first compound max 1 µM, 7x7, partner max 10 µM) | 0.865 | 0.638 | 0.714 | 0.36 | 0 | 0.438 | 0.641 | 0.369 | 1 | 0.723 | 0.708 | 0.951 | 0.908 | 0.491 | 0.428 | 0.738 | 0.947 | 0.776 | 0.958 | 1 |
| CC1(C)CCC(CN2CCN(c3ccc(C(=O)NS(=O)(=O)c4ccc(NCC5CCOCC5)c([N+](=O)[O-])c4)c(Oc4cnc5[nH]ccc5c4)c3)CC2)=C(c2ccc(Cl)cc2)C1 [Venetoclax] + C1CN(CCC1(C(=O)N[C@@H](CCO)C2=CC=C(C=C2)Cl)N)C3=NC=NC4=C3C=CN4 [Capivasertib] (first compound max 1 µM, 7x7, partner max 3 µM) | 0.639 | 0.312 | 0.257 | 0.638 | 0.254 | 0.138 | 0.0882 | 0.921 | 0.193 | 0.912 | 0.255 | 0.397 | 0.503 | 0.63 | 0.175 | 0.127 | 0.855 | 1 | 0.781 | 0.34 |
| CC1(C)CCC(CN2CCN(c3ccc(C(=O)NS(=O)(=O)c4ccc(NCC5CCOCC5)c([N+](=O)[O-])c4)c(Oc4cnc5[nH]ccc5c4)c3)CC2)=C(c2ccc(Cl)cc2)C1 [Venetoclax] + C=CCn1c(=O)c2cnc(Nc3ccc(N4CCN(C)CC4)cc3)nc2n1-c1cccc(C(C)(C)O)n1 [AZD1775] (first compound max 1 µM, partner max 1 µM) | 0.457 | 0.739 | 0.424 | 0.957 | 1 | 0.261 | 0.393 | 1 | 0.799 | 0.99 | 0.501 | 0.27 | 0.497 | 0.38 | 0.331 | 0.453 | 0.329 | 1 | 0.899 | 0.674 |
| CC1(C)CCC(CN2CCN(c3ccc(C(=O)NS(=O)(=O)c4ccc(NCC5CCOCC5)c([N+](=O)[O-])c4)c(Oc4cnc5[nH]ccc5c4)c3)CC2)=C(c2ccc(Cl)cc2)C1 [Venetoclax] + CCN(CCO)CCCOc1ccc2c(Nc3cc(CC(=O)Nc4cccc(F)c4)[nH]n3)ncnc2c1 [AZD2811] (first compound max 1 µM, 7x7, partner max 1 µM) | 0.252 | 0.233 | 0.88 | 0.723 | 0.414 | 0.424 | 0.266 | 0.94 | 0.354 | 0.857 | 0.221 | 0.211 | 0.26 | 0.224 | 0.251 | 0.2 | 0.427 | 1 | 0.918 | 0.486 |
| CC1(C)CCC(CN2CCN(c3ccc(C(=O)NS(=O)(=O)c4ccc(NCC5CCOCC5)c([N+](=O)[O-])c4)c(Oc4cnc5[nH]ccc5c4)c3)CC2)=C(c2ccc(Cl)cc2)C1 [Venetoclax] + CN(C)CCCOc1ccc(-c2ccc3ncc4c(c3c2)n(C2CCOCC2)c(=O)n4C)cn1 [AZD0156] (first compound max 1 µM, 7x7, partner max 1 µM) | 0.155 | 0.155 | 0.294 | 0.886 | 0.334 | 0.198 | 0.131 | 0.893 | 0.588 | 0.804 | 0.26 | 0.179 | 0.289 | 0.145 | 0.284 | 0.145 | 0.213 | 0.699 | 0.71 | 0.288 |
